{"source": "patent US10351915B2", "about": "(Berg LLC, priority 2009, dated 2019)", "key": {"Hif1 alpha": {"system": "Hif1 alpha", "experiment": "Western blot, Hif1 alpha levels", "assay_type": "cell-based, human", "details": "whole cell lysates of normal cells", "protocol": "The Actin blots were stripped by incubating for 30 minutes with methanol, followed by two 10 minute washes with TBS-T, then 30 minutes of incubation with Stripping buffer at 50 deg C., and followed by two washes with 100 ml or more of TBS-T for 30′ each. The blots were scanned in laser scanner to check for complete stripping. The blots were activated with methanol for 5 seconds, washed with water for 5 minutes, and TBST for 15 minutes. The blots were blocked for 1 hour with 5% blocking reagent in TBS-T at room temperature and then washed 3 times with TBS-T (1×-15′; 2×5′ each) and probed with the primary antibody for Hif 1 alpha, Caspase 3 or PDHB in 5% BSA (at 1:200 by incubation overnight at 4 deg C. with gentle shaking. The primary antibody for Hif 1 alpha (Abcam ab2185; antirabbit) was at 1:500 dilution in 5% BSA. The primary antibody for Caspase 3 (Santacruz sc7272; antirabbit) was at 1:200 dilution in 5% BSA. The primary antibody for Pyruvate Dehydrogenase beta (PDHB) (Novus Biologicals H00005162-M03; antimouse) was at 1:500 dilution in 5% BSA. After incubation with primary antibodies, the membranes were washed 3 times with TBS-T (1×-15′; 2×5′ each) and probed with the secondary antibody (PDHB antimouse; Hif 1a and Caspase 3 antirabbit; 1:10,000 dilution) for 1 h at room temperature. […]"}, "SCC cells": {"system": "SCC cells", "experiment": "Real-time PCR Diabetes Array", "assay_type": "cell-based", "source_text": "The control cells were untreated cells."}}, "data": [{"smiles": "COC1=C(OC)C(=O)C(C/C=C(\\C)CC/C=C(\\C)CC/C=C(\\C)CC/C=C(\\C)CC/C=C(\\C)CC/C=C(\\C)CC/C=C(\\C)CC/C=C(\\C)CC/C=C(\\C)CCC=C(C)C)=C(C)C1=O", "note": "[Q10, Coenzyme Q10]", "values": [{"measurement": "lower band of Hif1a", "setting": "Hif1 alpha", "value": "showed a decrease as well"}, {"measurement": "Regulation (mRNA)", "setting": "SCC cells; 100 μM Q10, at 6 and 24 hours", "value": "Down regulated at 6 and 24"}, {"measurement": "Regulation (mRNA)", "setting": "SCC cells; 100 μM Q10, at 6 hours", "value": "Down regulated at 6 hours."}]}]}
